Measured values: PubChem BioAssay AID1845205 (Molecular Pharmacology Branch, DTP, NCI, 2023)

Tested on: MPNST multicellular tumor spheroids, viability % test/control
Experiment: Anticancer human tumor MPNST cell line growth inhibition;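 also: spheroids exposed to agents for seven days after three days of growth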;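 as to viability, T/C: luminescence signal used as surrogate for viable cell amount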
Conditions: for IC50: curve of first compound; for viability, T/C: stronger effect = lower value
Summary of the method: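 Complex spheroids of malignant cells with endothelial cells and mesenchymal stem cells; agents alone or combined, from near clinical Cmax (or 10 microM if unknown) down in half-log steps, 0.25% DMSO final.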

[1] = second compound 1 µM, first compound 0.0949 µM
[2] = second compound 1 µM, first compound 0.3 µM
[3] = second compound 1 µM, first compound 0.949 µM
[4] = second compound 1 µM, first compound 3 µM
[5] = second compound 3.16 µM, first compound 0.0949 µM
[6] = second compound 3.16 µM, first compound 0.3 µM
[7] = second compound 3.16 µM, first compound 0.949 µM
[8] = second compound 3.16 µM, first compound 3 µM
[9] = second compound 10 µM, first compound 0.0949 µM
[10] = second compound 10 µM, first compound 0.3 µM
[11] = second compound 10 µM, first compound 0.949 µM
[12] = second compound 10 µM, first compound 3 µM
[13] = second compound 31.6 µM, first compound 0.0949 µM
[14] = second compound 31.6 µM, first compound 0.3 µM
[15] = second compound 31.6 µM, first compound 0.949 µM
[16] = second compound 31.6 µM, first compound 3 µM
[17] = second compound 100 µM, first compound 0.0949 µM
[18] = second compound 100 µM, first compound 0.3 µM
[19] = second compound 100 µM, first compound 0.949 µM
[20] = second compound 100 µM, first compound 3 µM

O=C(c1cc(Cc2n[nH]c(=O)c3ccccc23)ccc1F)N1CCN(C(=O)C2CC2)CC1 + CC[C@@]1(O)C(=O)OCc2c1cc1n(c2=O)Cc2cc3c(CN(C)C)c(O)ccc3nc2-1
IC50 (second compound 0.003 µM): > 30000 nM | IC50 (second compound 0.00949 µM): > 30000 nM | IC50 (second compound 0.03 µM): > 30000 nM | IC50 (second compound 0.0949 µM): > 30000 nM | IC50 (second compound 0.3 µM): < 94.9 nM | viability, T/C (second compound 0.003 µM, first compound 0.0949 µM): 87.4% | viability, T/C (second compound 0.003 µM, first compound 0.3 µM): 78% | viability, T/C (second compound 0.003 µM, first compound 0.949 µM): 72.9% | viability, T/C (second compound 0.003 µM, first compound 3 µM): 68% | viability, T/C (second compound 0.003 µM, first compound 9.49 µM): 69.5% | viability, T/C (second compound 0.003 µM, first compound 30 µM): 58.2% | viability, T/C (second compound 0.00949 µM, first compound 0.0949 µM): 81.5% | viability, T/C (second compound 0.00949 µM, first compound 0.3 µM): 73.7% | viability, T/C (second compound 0.00949 µM, first compound 0.949 µM): 62.2% | viability, T/C (second compound 0.00949 µM, first compound 3 µM): 59.3% | viability, T/C (second compound 0.00949 µM, first compound 9.49 µM): 59.9% | viability, T/C (second compound 0.00949 µM, first compound 30 µM): 59% | viability, T/C (second compound 0.03 µM, first compound 0.0949 µM): 53.5% | viability, T/C (second compound 0.03 µM, first compound 0.3 µM): 59.2% | viability, T/C (second compound 0.03 µM, first compound 0.949 µM): 57% | viability, T/C (second compound 0.03 µM, first compound 3 µM): 58.4% | viability, T/C (second compound 0.03 µM, first compound 9.49 µM): 60.9% | viability, T/C (second compound 0.03 µM, first compound 30 µM): 55.3% | viability, T/C (second compound 0.0949 µM, first compound 0.0949 µM): 57.5% | viability, T/C (second compound 0.0949 µM, first compound 0.3 µM): 53.1% | viability, T/C (second compound 0.0949 µM, first compound 0.949 µM): 58.5% | viability, T/C (second compound 0.0949 µM, first compound 3 µM): 54.9% | viability, T/C (second compound 0.0949 µM, first compound 9.49 µM): 54.6% | viability, T/C (second compound 0.0949 µM, first compound 30 µM): 55% | viability, T/C (second compound 0.3 µM, first compound 0.0949 µM): 49.3% | viability, T/C (second compound 0.3 µM, first compound 0.3 µM): 50.7% | viability, T/C (second compound 0.3 µM, first compound 0.949 µM): 50.5% | viability, T/C (second compound 0.3 µM, first compound 3 µM): 46.3% | viability, T/C (second compound 0.3 µM, first compound 9.49 µM): 47.8% | viability, T/C (second compound 0.3 µM, first compound 30 µM): 38.6%

Cn1ncnc1[C@H]1c2n[nH]c(=O)c3cc(F)cc(c23)N[C@@H]1c1ccc(F)cc1 + Cn1nnc2c(C(N)=O)ncn2c1=O
IC50 (second compound 1 µM): 2760 nM | IC50 (second compound 3.16 µM): > 3000 nM | IC50 (second compound 10 µM): > 3000 nM | IC50 (second compound 31.6 µM): 505 nM | IC50 (second compound 100 µM): 27 nM | viability, T/C (second compound 1 µM, first compound 0.00949 µM): 93.1% | viability, T/C (second compound 1 µM, first compound 0.03 µM): 77.1% | viability, T/C [1]: 70.3% | viability, T/C [2]: 58.9% | viability, T/C [3]: 52% | viability, T/C [4]: 50.8% | viability, T/C (second compound 3.16 µM, first compound 0.00949 µM): 77.7% | viability, T/C (second compound 3.16 µM, first compound 0.03 µM): 74% | viability, T/C [5]: 74.2% | viability, T/C [6]: 55.2% | viability, T/C [7]: 53.7% | viability, T/C [8]: 52.7% | viability, T/C (second compound 10 µM, first compound 0.00949 µM): 79% | viability, T/C (second compound 10 µM, first compound 0.03 µM): 71.6% | viability, T/C [9]: 63.9% | viability, T/C [10]: 55.8% | viability, T/C [11]: 51.7% | viability, T/C [12]: 51.7% | viability, T/C (second compound 31.6 µM, first compound 0.00949 µM): 61.7% | viability, T/C (second compound 31.6 µM, first compound 0.03 µM): 56% | viability, T/C [13]: 58.1% | viability, T/C [14]: 48.9% | viability, T/C [15]: 48.2% | viability, T/C [16]: 46.5% | viability, T/C (second compound 100 µM, first compound 0.00949 µM): 52.5% | viability, T/C (second compound 100 µM, first compound 0.03 µM): 50% | viability, T/C [17]: 49% | viability, T/C [18]: 46.2% | viability, T/C [19]: 47.5% | viability, T/C [20]: 48.3%

COc1ccc([C@@H](O)c2cc(-c3ncnc4cc(N5CCOCC5)ccc34)c(F)cc2Cl)nn1 + CC[C@@]1(O)C(=O)OCc2c1cc1n(c2=O)Cc2cc3c(CN(C)C)c(O)ccc3nc2-1
IC50 (second compound 0.003 µM): 1170 nM | IC50 (second compound 0.00949 µM): 641 nM | IC50 (second compound 0.03 µM): < 31.6 nM | IC50 (second compound 0.0949 µM): < 31.6 nM | IC50 (second compound 0.3 µM): < 31.6 nM | viability, T/C (second compound 0.003 µM, first compound 0.0316 µM): 96.3% | viability, T/C (second compound 0.003 µM, first compound 0.1 µM): 77.6% | viability, T/C (second compound 0.003 µM, first compound 0.316 µM): 69.2% | viability, T/C (second compound 0.003 µM, first compound 1 µM): 55.6% | viability, T/C (second compound 0.003 µM, first compound 3.16 µM): 33.5% | viability, T/C (second compound 0.003 µM, first compound 10 µM): 14.6% | viability, T/C (second compound 0.00949 µM, first compound 0.0316 µM): 78.4% | viability, T/C (second compound 0.00949 µM, first compound 0.1 µM): 81.6% | viability, T/C (second compound 0.00949 µM, first compound 0.316 µM): 57.7% | viability, T/C (second compound 0.00949 µM, first compound 1 µM): 41% | viability, T/C (second compound 0.00949 µM, first compound 3.16 µM): 33% | viability, T/C (second compound 0.00949 µM, first compound 10 µM): 17.3% | viability, T/C (second compound 0.03 µM, first compound 0.0316 µM): 42.7% | viability, T/C (second compound 0.03 µM, first compound 0.1 µM): 42.9% | viability, T/C (second compound 0.03 µM, first compound 0.316 µM): 42.6% | viability, T/C (second compound 0.03 µM, first compound 1 µM): 36.1% | viability, T/C (second compound 0.03 µM, first compound 3.16 µM): 21% | viability, T/C (second compound 0.03 µM, first compound 10 µM): 16.4% | viability, T/C (second compound 0.0949 µM, first compound 0.0316 µM): 44.7% | viability, T/C (second compound 0.0949 µM, first compound 0.1 µM): 39.2% | viability, T/C (second compound 0.0949 µM, first compound 0.316 µM): 37.6% | viability, T/C (second compound 0.0949 µM, first compound 1 µM): 34.7% | viability, T/C (second compound 0.0949 µM, first compound 3.16 µM): 22.8% | viability, T/C (second compound 0.0949 µM, first compound 10 µM): 15.7% | viability, T/C (second compound 0.3 µM, first compound 0.0316 µM): 36.1% | viability, T/C (second compound 0.3 µM, first compound 0.1 µM): 39.7% | viability, T/C (second compound 0.3 µM, first compound 0.316 µM): 32.6% | viability, T/C (second compound 0.3 µM, first compound 1 µM): 27.6% | viability, T/C (second compound 0.3 µM, first compound 3.16 µM): 18% | viability, T/C (second compound 0.3 µM, first compound 10 µM): 10.3%

O=C(c1cc(Cc2n[nH]c(=O)c3ccccc23)ccc1F)N1CCN(C(=O)C2CC2)CC1 + Cn1nnc2c(C(N)=O)ncn2c1=O
IC50 (second compound 1 µM): 17700 nM | IC50 (second compound 3.16 µM): 22900 nM | IC50 (second compound 10 µM): 26400 nM | IC50 (second compound 31.6 µM): 16400 nM | IC50 (second compound 100 µM): 2850 nM | viability, T/C [1]: 70.9% | viability, T/C [2]: 77.9% | viability, T/C [3]: 82% | viability, T/C [4]: 71.9% | viability, T/C (second compound 1 µM, first compound 9.49 µM): 56.1% | viability, T/C (second compound 1 µM, first compound 30 µM): 44.9% | viability, T/C [5]: 83.8% | viability, T/C [6]: 80.2% | viability, T/C [7]: 92.1% | viability, T/C [8]: 77.2% | viability, T/C (second compound 3.16 µM, first compound 9.49 µM): 65.3% | viability, T/C (second compound 3.16 µM, first compound 30 µM): 45.4% | viability, T/C [9]: 118% | viability, T/C [10]: 95.2% | viability, T/C [11]: 87.6% | viability, T/C [12]: 66.2% | viability, T/C (second compound 10 µM, first compound 9.49 µM): 60.9% | viability, T/C (second compound 10 µM, first compound 30 µM): 48.1% | viability, T/C [13]: 82.6% | viability, T/C [14]: 107% | viability, T/C [15]: 80.2% | viability, T/C [16]: 70.3% | viability, T/C (second compound 31.6 µM, first compound 9.49 µM): 54.1% | viability, T/C (second compound 31.6 µM, first compound 30 µM): 45.8% | viability, T/C [17]: 83.4% | viability, T/C [18]: 85.6% | viability, T/C [19]: 72.6% | viability, T/C [20]: 49.2% | viability, T/C (second compound 100 µM, first compound 9.49 µM): 46.1% | viability, T/C (second compound 100 µM, first compound 30 µM): 44.7%
